Some test systems named below: SF-295; MOLT-4; U-251; DU-145; OVCAR-5; ACHN; CAKI-1; Malme-3M; CCRF-CEM; BT-549; UACC-257; SF-268; IGROV-1; NCI/ADR-RES; SK-MEL-2; KM12; MCF7; COLO 205; OVCAR-4; SW-620.
Holding throughout (assay): inhibition of tumour cell growth, NCI panel, 48 h

Data on seven molecules can be found in ChEMBL document CHEMBL1201862, “PubChem BioAssay data set” (2004).

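These data come from cells grown in 96-well plates and exposed to compound for 48 hours at five concentrations. Here, GI50 denotes the concentration required for 50% inhibition of growth.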 The source made the active and inactive calls. Cut-off read from the data, not from the text of the source: active = GI50 up to about 1.1 µM and inactive = higher. Bounds are passed on as bounds.

Consider `COc1cc(/C=N/c2ccc(S(N)(=O)=O)cc2)cc(OC)c1`, for which the GI50 is > 50 µM (inactive) in the assay on SF-295; 36.9 µM (inactive) in the assay with MOLT-4; > 50 µM (inactive) in the assay with U-251; > 50 µM (inactive) in the assay with DU-145; > 50 µM (inactive) in the assay with OVCAR-5; > 50 µM (inactive) in the assay on ACHN. For the same molecule, the GI50 is > 50 µM (inactive) in the assay on CAKI-1; > 50 µM (inactive) with Malme-3M; 34.3 µM (inactive) in the assay on CCRF-CEM; > 50 µM (inactive) in the assay with BT-549; > 50 µM (inactive) in the assay on UACC-257; > 50 µM (inactive) in the assay on SF-268. Moreover, the GI50 in the assay with IGROV-1 is 18.2 µM (inactive); in the assay on NCI/ADR-RES it was > 50 µM (inactive); in the assay with SK-MEL-2, > 50 µM (inactive); with KM12, 30.1 µM (inactive); in the assay on MCF7, 22.3 µM (inactive); in the assay with COLO 205 it was > 50 µM (inactive). For the same molecule, the GI50 with OVCAR-4 was > 50 µM (inactive).
Regarding `O=c1c2cc(I)ccc2nc(Sc2ccc([N+](=O)[O-])cc2[N+](=O)[O-])n1Cc1ccccc1`, the GI50 with SF-295 was 5.92 µM (inactive); in the assay with MOLT-4, 1.39 µM (inactive); in the assay with U-251, 3.81 µM (inactive); in the assay with DU-145, 2.96 µM (inactive); with OVCAR-5 it was 9.02 µM (inactive); in the assay on ACHN, 8.73 µM (inactive). The GI50 with CAKI-1 is 2.64 µM (inactive); in the assay with Malme-3M, 5.51 µM (inactive); with CCRF-CEM it was 0.159 µM (active); with BT-549 it was 1.29 µM (inactive); in the assay on UACC-257 it was 4.65 µM (inactive); in the assay with SF-268 it was 1.6 µM (inactive). Besides, the GI50 in the assay on IGROV-1 was 2.02 µM (inactive); in the assay on NCI/ADR-RES it was 1.83 µM (inactive); in the assay on SK-MEL-2 it was 1.85 µM (inactive); in the assay with SW-620 it was 2.47 µM (inactive); in the assay on KM12, 3.32 µM (inactive); in the assay on MCF7 it was 2.02 µM (inactive). Further, the GI50 in the assay with COLO 205 is 5.14 µM (inactive); with OVCAR-4, 2.49 µM (inactive).
For the molecule `CC(=O)Nc1ccc(-c2nc3cc(Cl)ccc3o2)cc1`, the GI50 in the assay on SF-295 is > 50 µM (inactive); in the assay on MOLT-4, > 50 µM (inactive); with U-251 it was 45.7 µM (inactive); in the assay with DU-145 it was > 50 µM (inactive); in the assay on OVCAR-5, > 50 µM (inactive); in the assay on ACHN, > 50 µM (inactive). Moreover, the GI50 in the assay with CAKI-1, with Malme-3M, in the assay on CCRF-CEM, in the assay on BT-549, in the assay with UACC-257 and in the assay with SF-268 was > 50 µM (inactive) each time. Also, the GI50 in the assay on IGROV-1, in the assay on NCI/ADR-RES, in the assay with SK-MEL-2, in the assay with SW-620, in the assay with KM12 and in the assay with MCF7 was > 50 µM (inactive) in each case. The GI50 with COLO 205 and with OVCAR-4 was > 50 µM (inactive) throughout.
Take `O=C1NC(=O)C(C(c2ccc([N+](=O)[O-])cc2)C2C(=O)NC(=O)NC2=O)C(=O)N1`: the GI50 with SF-295, in the assay with MOLT-4, in the assay with U-251, with DU-145, in the assay on OVCAR-5 and in the assay with ACHN was > 100 µM (inactive) each time. The GI50 is > 100 µM (inactive) in the assay with CAKI-1; 55.8 µM (inactive) with Malme-3M; 62.1 µM (inactive) with CCRF-CEM; > 100 µM (inactive) with BT-549; > 100 µM (inactive) in the assay on UACC-257; 22.5 µM (inactive) in the assay with SF-268. The GI50 in the assay on IGROV-1, with NCI/ADR-RES, in the assay on SK-MEL-2, in the assay on SW-620, in the assay with KM12 and in the assay with MCF7 was > 100 µM (inactive) throughout. The GI50 in the assay on COLO 205 and with OVCAR-4 was > 100 µM (inactive) in each case.
For `NS(=O)(=O)c1nnc(NC(=O)Nc2ccc(Cl)c(Cl)c2)s1`, the GI50 with SF-295 is 31.7 µM (inactive); in the assay with MOLT-4 it was 32.5 µM (inactive); in the assay on U-251 it was 29.4 µM (inactive); with DU-145 it was 29.4 µM (inactive); in the assay with OVCAR-5, 24.5 µM (inactive); in the assay with ACHN, 34.2 µM (inactive). The GI50 is 25.9 µM (inactive) in the assay with CAKI-1; 17.6 µM (inactive) with Malme-3M; 14.3 µM (inactive) in the assay on CCRF-CEM; 20 µM (inactive) with BT-549; 16.5 µM (inactive) in the assay on UACC-257; 24.7 µM (inactive) in the assay on SF-268. For the same molecule, the GI50 in the assay on NCI/ADR-RES was 21 µM (inactive); with SK-MEL-2, 25.4 µM (inactive); in the assay on SW-620 it was 27.9 µM (inactive); with KM12 it was 26.9 µM (inactive); in the assay with MCF7 it was 26.9 µM (inactive); in the assay on COLO 205, 13.9 µM (inactive). Moreover, the GI50 in the assay on OVCAR-4 was 30.6 µM (inactive).
For the molecule `O=C(C/C(=N/O)c1cc(-c2ccccc2)no1)c1ccccc1`, the GI50 in the assay with SF-295 is 33.7 µM (inactive); with MOLT-4 it was 31.8 µM (inactive); with U-251, 28.6 µM (inactive); in the assay on DU-145, > 100 µM (inactive); in the assay on OVCAR-5 it was > 100 µM (inactive); in the assay on ACHN, 45 µM (inactive). In addition, the GI50 is 36.6 µM (inactive) in the assay on CAKI-1; 41.4 µM (inactive) in the assay on Malme-3M; > 100 µM (inactive) in the assay with CCRF-CEM; 28.7 µM (inactive) with BT-549; 79.8 µM (inactive) in the assay on UACC-257; 18.7 µM (inactive) in the assay with SF-268. For the same molecule, the GI50 with IGROV-1 was 30 µM (inactive); in the assay with NCI/ADR-RES, 25.8 µM (inactive); in the assay on SK-MEL-2, 26.1 µM (inactive); in the assay on KM12, > 100 µM (inactive); in the assay on MCF7, 44.5 µM (inactive); in the assay on COLO 205 it was > 100 µM (inactive). Further, in the assay on OVCAR-4, the GI50 was 26.5 µM (inactive).
In the case of `C=CCc1cccc2cc(C(=O)NC3CCCCC3)c(=N)oc12`, the GI50 was > 100 µM (inactive) in the assay on MOLT-4; 27.2 µM (inactive) with U-251; 16.1 µM (inactive) with DU-145; 17.9 µM (inactive) with OVCAR-5; 11.1 µM (inactive) with ACHN; 16.8 µM (inactive) in the assay on CAKI-1. For the same molecule, the GI50 is > 100 µM (inactive) in the assay with Malme-3M; 17.5 µM (inactive) in the assay on CCRF-CEM; 33.7 µM (inactive) in the assay on BT-549; 25.1 µM (inactive) in the assay on UACC-257; 17.7 µM (inactive) in the assay with SF-268; > 100 µM (inactive) with IGROV-1. In addition, the GI50 with NCI/ADR-RES was 27.4 µM (inactive); in the assay with SK-MEL-2, 3.98 µM (inactive); in the assay with SW-620, 33.4 µM (inactive); in the assay with KM12 it was 16.9 µM (inactive); in the assay with MCF7, 26.2 µM (inactive); with COLO 205 it was 16.7 µM (inactive). In addition, the GI50 in the assay on OVCAR-4 was 20.9 µM (inactive).
